Values of other authors as cited in patent US20170239455A1 (priority 2014, published 2017).

Test system: virus Ebola

II [molecular iodine]
effectiveness against the virus: effective
